The NIST ThermoML archive (doi:10.1016/j.jct.2006.09.015)

What was measured:
[1] = relative permittivity at various frequencies (dimensionless); conditions: 101.3 kPa, Liquid, Frequency=3 MHz, Bridge type OH-301 made in Radelcis, Hungary
[2] = relative permittivity at various frequencies (dimensionless); xn = mol fraction of the nth substance listed; conditions: 101.3 kPa, Liquid, Frequency=3 MHz, Bridge type OH-301 made in Radelcis, Hungary

COCCO [2-methoxyethan-1-ol]
[1]
Conditions | relative permittivity
293.15 K | 17.38
298.15 K | 16.95
303.15 K | 16.56

COCCO [2-methoxyethan-1-ol] + OCCOCCO
[2], x1 = 1
Conditions | relative permittivity
293.15 K | 17.38
298.15 K | 16.95
303.15 K | 16.56

COCCO [2-methoxyethan-1-ol] + OCCOCCOCCO
[2], x1 = 1
Conditions | relative permittivity
293.15 K | 17.38
298.15 K | 16.95
303.15 K | 16.56

COCCO [2-methoxyethan-1-ol] + OCCOCCOCCOCCO
[2], x1 = 1
Conditions | relative permittivity
293.15 K | 17.38
298.15 K | 16.95
303.15 K | 16.56

OCCOCCO [diethylene glycol]
[1]
Conditions | relative permittivity
293.15 K | 31.81
298.15 K | 30.95
303.15 K | 30.03

OCCOCCO [diethylene glycol] + COCCO
relative permittivity, [2]
Conditions | 293.15 K | 298.15 K | 303.15 K
x2 = 0 | 31.81 | 30.95 | 30.03
x2 = 0.0414 | 31.69 | 30.71 | 29.85
x2 = 0.0999 | 31.49 | 30.39 | 29.49
x2 = 0.2077 | 31.23 | 29.85 | 29.01
x2 = 0.3001 | 31.03 | 29.41 | 28.45
x2 = 0.4094 | 30.32 | 28.67 | 27.49
x2 = 0.4998 | 29.56 | 27.81 | 26.61
x2 = 0.5994 | 28.32 | 26.68 | 25.36
x2 = 0.6996 | 26.65 | 24.99 | 23.55
x2 = 0.7996 | 24.25 | 22.78 | 21.64
x2 = 0.9018 | 21.43 | 20.27 | 19.39
x2 = 0.9463 | 19.98 | 18.88 | 18.25

OCCOCCOCCO [triethylene glycol]
[1]
Conditions | relative permittivity
293.15 K | 23.69
298.15 K | 23.07
303.15 K | 22.43

OCCOCCOCCO [triethylene glycol] + COCCO
relative permittivity, [2]
Conditions | 293.15 K | 298.15 K | 303.15 K
x2 = 0 | 23.69 | 23.07 | 22.43
x2 = 0.05 | 23.69 | 23.05 | 22.42
x2 = 0.1 | 23.7 | 23.03 | 22.41
x2 = 0.2003 | 23.72 | 23.06 | 22.48
x2 = 0.2999 | 23.76 | 23.07 | 22.48
x2 = 0.4009 | 23.79 | 23.06 | 22.44
x2 = 0.5 | 23.82 | 22.95 | 22.35
x2 = 0.5999 | 23.77 | 22.76 | 21.91
x2 = 0.7 | 23.62 | 22.3 | 21.39
x2 = 0.8 | 22.92 | 21.54 | 20.43
x2 = 0.9 | 21.26 | 19.93 | 19.1
x2 = 0.9499 | 19.75 | 18.81 | 18.14
